From patent USRE50528E1, “Compounds and compositions for modulating EGFR mutant kinase activities” (Yuhan Corporation, priority 2014, dated 2025) come the findings set out here.

For experiment [1], the target named is T1, EGFR mutant T790M (Homo sapiens, UniProt P00533, T790M).
T1 construct: truncated human JAK3, EGFR mutants such as del E746-A750; purchased Carna Biosciences
In words: Kinase inhibition assay, EGFR mutant T790M.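 Also: truncated human EGFR mutant enzyme preincubated two hours with compound, then ATP plus ULight-PolyGT peptide for one hour, Europium-labeled antibody LANCE detection, IC50.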 Conditions: biochemical potency.

The target in experiment [2] is T2, EGFR mutant Del19 (E746-A750) (Homo sapiens, UniProt P00533, DEL746-750).
T2 construct: truncated human JAK3, EGFR mutants such as del E746-A750; purchased Carna Biosciences
In words: Kinase inhibition assay, EGFR del E746-A750.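 Also: truncated human EGFR mutant kinase, two-hour preincubation with compound, then one-hour reaction with ATP and ULight-PolyGT peptide, LANCE Europium-antibody phosphorylation readout, IC50.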 The experiment is classed as biochemical. Conditions: read-out: EGFR mutants Del19 (E746-A750).

For experiment [3], the target named is T3, EGFR mutant L858R (Homo sapiens, UniProt P00533, L858R).
T3 construct: truncated human JAK3, EGFR mutants such as del E746-A750; purchased Carna Biosciences
Kind of experiment: Kinase inhibition assay, EGFR L858R.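 Also: truncated human EGFR L858R kinase with compound preincubation, ULight-PolyGT peptide phosphorylation read by Europium-antibody Lance detection, IC50.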 The experiment is classed as biochemical. Conditions: read-out: EGFR mutants L858R.

For experiment [4], the target named is T4, EGFR mutant L858R/T790M (Homo sapiens, UniProt P00533, L858R/T790M).
T4 construct: truncated human JAK3, EGFR mutants such as del E746-A750; purchased Carna Biosciences
In words: Kinase inhibition assay, EGFR L858R/T790M.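 Also: truncated human enzyme preincubated two hours with compound, then one hour with one millimolar ATP and ULight-PolyGT peptide, Europium-labeled antibody detection, IC50.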 Type of experiment: biochemical. The conditions noted are these: read-out: EGFR mutants L858R/T790M.

The target in experiment [5] is T5, EGFR mutant Del19/T790M (Homo sapiens, UniProt P00533, DEL746-750/T790M).
T5 construct: truncated human JAK3, EGFR mutants such as del E746-A750; purchased Carna Biosciences
Kind of experiment: Kinase inhibition assay, EGFR del E746-A750/T790M. The experiment is classed as biochemical. Conditions: read-out: EGFR mutants Del19/T790M.

The target in experiment [6] is T6, SYK (Homo sapiens, UniProt P43405).
T6 construct: Purified human, full-length SYK, KDR; purchased Carna Biosciences
Kind of experiment: Kinase inhibition assay, SYK.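 Also: purified full-length human SYK pre-incubated 30 min with compound, then ULight-TK peptide phosphorylation for 1 h, detected with Europium-labeled antibody in Lance buffer.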 Type of experiment: biochemical. The conditions noted are these: biochemical potency.

T2 sequence (P00533 with tags, fused parts or gaps DEL746-750 limits assumed): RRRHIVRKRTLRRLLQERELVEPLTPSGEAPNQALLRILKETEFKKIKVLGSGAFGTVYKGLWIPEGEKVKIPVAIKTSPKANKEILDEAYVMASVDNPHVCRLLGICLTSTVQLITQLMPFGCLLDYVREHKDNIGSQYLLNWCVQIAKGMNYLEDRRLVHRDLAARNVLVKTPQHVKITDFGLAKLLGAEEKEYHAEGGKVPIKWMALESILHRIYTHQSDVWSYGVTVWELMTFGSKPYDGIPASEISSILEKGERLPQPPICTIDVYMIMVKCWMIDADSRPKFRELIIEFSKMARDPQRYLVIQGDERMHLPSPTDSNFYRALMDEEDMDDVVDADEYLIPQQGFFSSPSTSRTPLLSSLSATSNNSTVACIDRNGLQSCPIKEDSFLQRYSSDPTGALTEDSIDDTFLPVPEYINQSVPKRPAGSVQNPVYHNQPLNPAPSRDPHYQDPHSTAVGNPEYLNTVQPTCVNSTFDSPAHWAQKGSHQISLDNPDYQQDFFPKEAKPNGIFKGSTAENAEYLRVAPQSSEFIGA
T4 sequence (P00533 669-1210 T790M/L858R limits assumed): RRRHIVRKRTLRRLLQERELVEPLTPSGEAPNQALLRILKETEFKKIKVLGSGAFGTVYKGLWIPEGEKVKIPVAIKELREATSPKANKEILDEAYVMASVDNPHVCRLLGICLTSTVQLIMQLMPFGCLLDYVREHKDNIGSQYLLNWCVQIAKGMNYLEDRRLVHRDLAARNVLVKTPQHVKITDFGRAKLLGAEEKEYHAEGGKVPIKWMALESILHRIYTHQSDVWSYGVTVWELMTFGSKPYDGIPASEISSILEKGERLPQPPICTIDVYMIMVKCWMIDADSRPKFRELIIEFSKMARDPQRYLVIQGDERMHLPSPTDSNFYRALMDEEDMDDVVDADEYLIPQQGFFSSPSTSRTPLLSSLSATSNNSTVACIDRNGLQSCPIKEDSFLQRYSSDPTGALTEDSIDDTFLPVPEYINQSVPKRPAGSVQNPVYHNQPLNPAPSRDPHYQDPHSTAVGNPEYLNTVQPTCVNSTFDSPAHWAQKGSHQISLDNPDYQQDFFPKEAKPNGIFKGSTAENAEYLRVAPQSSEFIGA
T1 sequence (P00533 669-1210 T790M limits assumed): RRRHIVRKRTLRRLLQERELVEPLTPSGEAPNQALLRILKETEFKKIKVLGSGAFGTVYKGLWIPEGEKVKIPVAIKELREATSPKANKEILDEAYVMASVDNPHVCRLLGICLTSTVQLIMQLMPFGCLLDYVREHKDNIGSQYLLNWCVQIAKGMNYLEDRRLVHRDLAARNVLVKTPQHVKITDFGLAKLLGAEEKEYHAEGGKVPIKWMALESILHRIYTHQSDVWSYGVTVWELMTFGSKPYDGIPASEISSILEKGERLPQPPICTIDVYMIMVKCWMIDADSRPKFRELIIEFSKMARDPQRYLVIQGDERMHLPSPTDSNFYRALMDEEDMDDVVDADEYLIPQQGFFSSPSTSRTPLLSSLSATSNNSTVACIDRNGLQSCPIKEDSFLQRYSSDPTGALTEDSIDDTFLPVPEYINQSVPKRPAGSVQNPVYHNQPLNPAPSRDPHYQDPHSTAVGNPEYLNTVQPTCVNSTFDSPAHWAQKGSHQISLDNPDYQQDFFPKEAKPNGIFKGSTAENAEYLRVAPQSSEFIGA
T5 sequence (P00533 with tags, fused parts or gaps DEL746-750/T790M limits assumed): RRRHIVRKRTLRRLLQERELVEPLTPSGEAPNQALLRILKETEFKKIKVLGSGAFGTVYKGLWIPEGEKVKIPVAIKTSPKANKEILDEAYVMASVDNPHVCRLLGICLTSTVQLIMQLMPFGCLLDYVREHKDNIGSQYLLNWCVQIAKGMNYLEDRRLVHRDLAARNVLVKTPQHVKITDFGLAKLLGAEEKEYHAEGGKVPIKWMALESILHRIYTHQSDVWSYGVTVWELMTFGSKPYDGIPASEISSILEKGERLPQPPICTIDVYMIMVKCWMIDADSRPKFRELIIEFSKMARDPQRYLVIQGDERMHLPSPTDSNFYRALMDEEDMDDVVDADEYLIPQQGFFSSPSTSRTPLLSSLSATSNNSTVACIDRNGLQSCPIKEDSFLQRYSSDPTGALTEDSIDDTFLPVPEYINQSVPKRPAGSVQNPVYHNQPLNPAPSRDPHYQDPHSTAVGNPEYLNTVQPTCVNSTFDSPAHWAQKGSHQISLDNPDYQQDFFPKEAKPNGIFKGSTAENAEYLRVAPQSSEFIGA
T3 sequence (P00533 669-1210 L858R limits assumed): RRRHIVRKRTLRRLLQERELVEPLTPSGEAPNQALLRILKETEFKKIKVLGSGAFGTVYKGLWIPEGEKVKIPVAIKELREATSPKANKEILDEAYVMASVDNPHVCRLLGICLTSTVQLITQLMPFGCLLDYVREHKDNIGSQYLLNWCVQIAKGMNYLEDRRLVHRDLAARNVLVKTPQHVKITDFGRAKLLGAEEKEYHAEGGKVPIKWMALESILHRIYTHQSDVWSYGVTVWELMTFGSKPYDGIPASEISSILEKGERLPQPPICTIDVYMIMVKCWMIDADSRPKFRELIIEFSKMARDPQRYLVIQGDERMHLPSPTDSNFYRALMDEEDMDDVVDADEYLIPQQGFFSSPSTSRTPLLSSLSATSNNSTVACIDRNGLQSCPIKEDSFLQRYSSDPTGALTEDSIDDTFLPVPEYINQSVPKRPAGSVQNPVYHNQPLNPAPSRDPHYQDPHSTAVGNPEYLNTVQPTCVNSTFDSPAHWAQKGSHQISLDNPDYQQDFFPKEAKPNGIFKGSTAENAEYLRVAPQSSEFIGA

As to `C=CC(=O)Nc1cc(Nc2nccc(-n3cc(CN(C)C)c(-c4ccc(F)cc4)n3)n2)c(OC)cc1N1CCOCC1` [Compound 6, N-(5-(4-(4-((dimethylamino)methyl)-3-(4-fluorophenyl)-1H-pyrazol-1-yl)pyrimidin-2-ylamino)-4-methoxy-2-morpholinophenyl)acrylamide], the IC50 in experiment [1] was 20 to 200 nM; in experiment [2], 20 to 200 nM; in experiment [3], 20 to 200 nM; in experiment [4] it was less than 20 nM; in experiment [5] it was less than 20 nM; in experiment [6], more than 1000 nM.

Turning to `C=CC(=O)Nc1cc(Nc2ncc(C)c(-n3cc(CN4CCC4)c(C(C)(C)C)n3)n2)c(OC)cc1N1CCOCC1` [Compound 67, N-(5-(4-(4-(azetidin-1-ylmethyl)-3-tert-butyl-1H-pyrazol-1-yl)-5-methylpyrimidin-2-ylamino)-4-methoxy-2-morpholinophenyl)acrylamide], the IC50 in experiment [1] was 20 to 200 nM; in experiment [2], less than 20 nM; in experiment [3], less than 20 nM; in experiment [4], less than 20 nM; in experiment [5] it was less than 20 nM; in experiment [6], more than 1000 nM.

In the case of `C=CC(=O)Nc1cc(Nc2nccc(-n3cc(CN4CCC4)c(C4CC4)n3)n2)c(OC)cc1N1CCC1` [Compound 139, N-(2-(azetidin-1-yl)-5-(4-(4-(azetidin-1-ylmethyl)-3-cyclopropyl-1H-pyrazol-1-yl)pyrimidin-2-ylamino)-4-methoxyphenyl)acrylamide], the IC50 in experiment [1] is less than 20 nM; in experiment [2], less than 20 nM; in experiment [3], less than 20 nM; in experiment [4], less than 20 nM; in experiment [5], less than 20 nM; in experiment [6] it was more than 1000 nM.

As to `C=CC(=O)Nc1cc(Nc2ncc(C)c(-n3cc(CN4CCOCC4)cn3)n2)c(OC)cc1N1CCN(C)CC1` [Compound 33, N-(4-methoxy-5-(5-methyl-4-(4-(morpholinomethyl)-1H-pyrazol-1-yl)pyrimidin-2-ylamino)-2-(4-methylpiperazin-1-yl)phenyl)acrylamide], the IC50 in experiment [1] was less than 20 nM; in experiment [2], 20 to 200 nM; in experiment [3] it was 20 to 200 nM; in experiment [4], 20 to 200 nM; in experiment [5] it was less than 20 nM; in experiment [6], more than 1000 nM.

For the molecule `C=CC(=O)Nc1cc(Nc2nccc(-n3cc(CN4CCC4)c(-c4ccccc4)n3)n2)c(OC)cc1N(C)CCOC` [Compound 95, N-(5-(4-(4-(azetidin-1-ylmethyl)-3-phenyl-1H-pyrazol-1-yl)pyrimidin-2-ylamino)-4-methoxy-2-((2-methoxyethyl)(methyl)amino)phenyl)acrylamide], the IC50 in experiment [1] was less than 20 nM; in experiment [2], less than 20 nM; in experiment [3], less than 20 nM; in experiment [4] it was less than 20 nM; in experiment [5], less than 20 nM; in experiment [6] it was more than 1000 nM.

Take `C=CC(=O)Nc1cc(Nc2ncc(C)c(-n3cc(CN(C)C)c(-c4ccccc4)n3)n2)c(OC)cc1N1CCOCC1` [Compound 120, N-(5-(4-(4-((dimethylamino)methyl)-3-phenyl-1H-pyrazol-1-yl)-5-methylpyrimidin-2-ylamino)-4-methoxy-2-morpholinophenyl)acrylamide]: the IC50 in experiment [1] is less than 20 nM; in experiment [2] it was less than 20 nM; in experiment [3] it was less than 20 nM; in experiment [4], less than 20 nM; in experiment [5], less than 20 nM; in experiment [6], 20 to 200 nM.

With `Cc1cn(-c2ccnc(Nc3ccc(-c4ccccc4)c(C)c3)n2)cc1CN1CC(O)C1` [Compound 150, 1-((4-methyl-1-(2-(2-methylbiphenyl-4-ylamino)pyrimidin-4-yl)-1H-pyrrol-3-yl)methyl)azetidin-3-ol, reference compound], the IC50 was more than 1000 nM in experiment [1]; more than 1000 nM in experiment [2]; more than 1000 nM in experiment [3]; 201 to 1000 nM in experiment [4]; more than 1000 nM in experiment [5]; more than 1000 nM in experiment [6].
